Source: article PMC2831066, “The Alzheimer's Disease-Associated Amyloid β-Protein Is an Antimicrobial Peptide” (PLoS ONE, 2010)
≈ marks a conversion by molar mass, not a printed value. Where two headings read alike, the source gives them in different places. No end group written: not given here.

Assays:
[1] = system: panel of clinically relevant organisms; test: MIC against panel of clinically relevant organisms, recombinant versus synthetic peptide; type: cell-based; details: data not shown
Description: Aβ and LL-37 peptides were prepared and purified by Dr. James I. Elliott at Yale University (New Haven, CT) using solid-phase peptide synthesis. Scrambled LL-37 peptide was from AnaSpec (San Jose, CA). […] Findings for recombinant and SPPS prepared peptides were equivalent in all experiments.
(§1) Peptide antimicrobial activity was determined as minimal inhibitory concentration (MIC). Experiments identified peptide MIC by broth microdilution susceptibility test in conjunction with CFU and alamar blue assays. Inoculum containing mid-logarithmic phase cells was dispensed into the wells of polypropylene 96-well plates (Fisher, Pittsburgh, PA) containing seven two-fold dilutions of test peptide in growth media. Plates were then incubated aerobically overnight (12 to 18 hrs) at 37°C. Peptide MIC was taken as the lowest concentration able reduce cell growth by CFU and alamar blue assays by at least two-fold and which correlated with the visible loss of a growth button on the bottom of microtiter wells. Experiments were repeated a minimum of three times for each organism, and tests included at least three replicates for each assay condition. Experiments included control serial dilutions of buffer vehicle alone.

[2] = clinical trial in AD patients; cited from earlier work
[3] = system: Candida albicans; type: cell-based
Description: (§2) Bacteria were cultured aerobically in Mueller-Hinton broth (MHB), Brain and Heart Infusion broth (BHIB), or BHIB supplemented with 1% lysed horse blood and plated on Tryptone Soy Agar (TSA) plates containing 5% defibrinated sheep blood. […] Culture conditions for each organism are included in Table S1. Organisms were subcultured for 2 hrs to generate mid-logarithmic growth cultures for use as inoculates in experiments. Media reagents were obtained from Becton, Dickinson and Company (Sparks, MD).
(§3) Colonies from agar were transferred by sterile loop to growth media and incubated for 2 hrs at 37°C to achieve a McFarland density of 0.5. Bacteria inoculum cell densities were normalized to 5×10^5 cells/ml immediately before use photometrically and subsequently confirmed by colony count. Inoculum of C. albicans contained a cell density of 2.5×10^3 CFU/ml.
(§4) Bulk powdered peptides were first dissolved in 30% trifluoroethanol (TFE) at 1 mg/ml. Five hundred microliter aliquots of the stock solutions were lyophilized and stored under nitrogen at −20°C. Stock solutions at 2 mg/ml were prepared the day of experimentation from the peptide films by solubilizing a second time in either water or 20% TFE. Aβ stocks prepared in water were sonicated and insoluble peptide aggregates pelleted by centrifugation (10 min×16,000 g). Peptide concentrations in stock solutions were determined immediately before use by bicinchoninic acid (BCA) protein assay. […] For MIC experiments, peptides were serially diluted into growth media. For other experiments stocks were diluted into required working buffers. Experiments included controls for peptide buffer vehicle alone.
as §1
(§5) Serial dilutions of incubants were prepared and streaked onto the surface of agar. The agar plates were then incubated overnight at 37°C and colonies forming units counted.
(§6) Microbial growth was determined by following the reduction of the synthetic metabolic substrate resazurin (alamar blue) to a fluorescent product by respiratory enzymes in living cells. Alamar blue assay is used in high throughput screens for antimicrobial agents and is available commercially in kit form from Invitrogen. Microbial growth in experiments was assayed with alamar blue kits according to the manufacturer's instructions. […] Fluorescence signal was measured at excitation of 530 nm and emission at 590 nm.

[4] = system: Enterococcus faecalis; type: cell-based
Description: as §2, §3, §4, §1, §5, §6

[5] = system: Escherichia coli; type: cell-based
Description: as §2, §3, §4, §1, §5, §6

[6] = system: Listeria monocytogenes; type: cell-based
Description: as §2, §3, §4, §1, §5, §6

[7] = system: Pseudomonas aeruginosa; type: cell-based
Description: as §2, §3, §4, §1, §5, §6

[8] = system: Staphylococcus aureus; type: cell-based
Description: as §2, §3, §4, §1, §5, §6

[9] = system: Staphylococcus epidermidis; type: cell-based
Description: as §2, §3, §4, §1, §5, §6

[10] = system: Streptococcus agalactiae; type: cell-based
Description: as §2, §3, §4, §1, §5, §6

[11] = system: Streptococcus mitis; type: cell-based
Description: as §2, §3, §4, §1, §5, §6

[12] = system: Streptococcus pneumoniae; type: cell-based
Description: as §2, §3, §4, §1, §5, §6

[13] = system: Streptococcus pyogenes; type: cell-based
Description: as §2, §3, §4, §1, §5, §6

[14] = system: Streptococcus salivarius; type: cell-based
Description: as §2, §3, §4, §1, §5, §6

[15] = system: E. faecalis; test: Growth curves of E. faecalis with peptide, CFU count; type: cell-based, Enterococcus faecalis; details: 25 µg/ml peptide; growth with time by CFU; six experiments, four replicates (Figure 1A)
Description: as §5

Compound: recombinant Aβ42: Recombinant human Aβ42 purchased from rPeptide
- Antimicrobial activity compared with synthetic Aβ42 [1]: Equivalent findings

Compound: C[C@@H](C(=O)O)c1ccc(-c2ccccc2)c(F)c1 [tarenflurbil]
- Rates of infection in patients receiving the drug [2]: significantly increased rates of infection

Compound: DAEFGHDSGFEVRHQKLVFFAEDVGSNKGAIIGLMVGGVVIA [roAβ42]
- MIC ([3]; pH 7): 0.78 µg/mL
- MIC [4]: 3.13 µg/mL
- MIC [5]: 3.13 µg/mL
- MIC [6]: 6.25 µg/mL
- MIC [7]: >50 µg/mL
- MIC [8]: 12.5 µg/mL
- MIC [9]: 3.13 µg/mL
- MIC [10]: >50 µg/mL
- MIC [11]: >50 µg/mL
- MIC [12]: 6.25 µg/mL
- MIC [13]: >50 µg/mL
- MIC [14]: >50 µg/mL

Compound: AIVVGGVMLGIIAGKNSGVDEAFFVLKQHHVEYGSDHRFEAD [reAβ42, Aβ42-1]
- MIC ([3]; pH 7): >25 µg/mL
- MIC [4]: 50 µg/mL
- MIC [5]: >50 µg/mL
- MIC [6]: >50 µg/mL
- MIC [7]: >50 µg/mL
- MIC [8]: >50 µg/mL
- MIC [9]: >50 µg/mL
- MIC [10]: >50 µg/mL
- MIC [11]: >50 µg/mL
- MIC [12]: 50 µg/mL
- MIC [13]: >50 µg/mL
- MIC [14]: >50 µg/mL

Compound: CC[C@H](C)[C@H](NC(=O)[C@H](CCCCN)NC(=O)[C@H](CCC(=O)O)NC(=O)[C@H](CCCCN)NC(=O)[C@H](CO)NC(=O)[C@H](CCCCN)NC(=O)[C@H](CCCNC(=N)N)NC(=O)[C@H](Cc1ccccc1)NC(=O)[C@H](Cc1ccccc1)NC(=O)[C@H](CC(=O)O)NC(=O)CNC(=O)[C@H](CC(C)C)NC(=O)[C@@H](N)CC(C)C)C(=O)NCC(=O)N[C@@H](CCCCN)C(=O)N[C@@H](CCC(=O)O)C(=O)N[C@@H](Cc1ccccc1)C(=O)N[C@@H](CCCCN)C(=O)N[C@@H](CCCNC(=N)N)C(=O)N[C@H](C(=O)N[C@H](C(=O)N[C@@H](CCC(N)=O)C(=O)N[C@@H](CCCNC(=N)N)C(=O)N[C@H](C(=O)N[C@@H](CCCCN)C(=O)N[C@@H](CC(=O)O)C(=O)N[C@@H](Cc1ccccc1)C(=O)N[C@@H](CC(C)C)C(=O)N[C@@H](CCCNC(=N)N)C(=O)N[C@@H](CC(N)=O)C(=O)N[C@@H](CC(C)C)C(=O)N[C@H](C(=O)N1CCC[C@H]1C(=O)N[C@@H](CCCNC(=N)N)C(=O)N[C@H](C(=O)N[C@@H](CCC(=O)O)C(=O)N[C@@H](CO)C(=O)O)[C@@H](C)O)C(C)C)[C@@H](C)CC)C(C)C)[C@@H](C)CC [LL-37]
- MIC ([3]; Candida albicans ATCC 10231, RPMI-1640 with 2% glucose, MOPS pH 7.0, inoculum 2.5×10^3 CFU/ml, mid-logarithmic phase, overnight (12 to 18 hrs) 37°C, visual inspection confirmed by alamar blue and CFU, repeated at least three times): 6.25 µg/mL (≈ 1.39 µM)
- MIC ([4]; Enterococcus faecalis ATCC 29212, inoculum 5×10^5 cells/ml, mid-logarithmic phase, overnight (12 to 18 hrs) 37°C, visual inspection confirmed by alamar blue and CFU, repeated at least three times): 6.25 µg/mL (≈ 1.39 µM)
- MIC ([5]; Escherichia coli ATCC 25922, inoculum 5×10^5 cells/ml, mid-logarithmic phase, overnight (12 to 18 hrs) 37°C, visual inspection confirmed by alamar blue and CFU, repeated at least three times): 1.56 µg/mL (≈ 0.347 µM)
- MIC ([6]; Listeria monocytogenes ATCC 19112, inoculum 5×10^5 cells/ml, mid-logarithmic phase, overnight (12 to 18 hrs) 37°C, visual inspection confirmed by alamar blue and CFU, repeated at least three times): 25 µg/mL (≈ 5.56 µM)
- MIC ([7]; Pseudomonas aeruginosa ATCC 27853, inoculum 5×10^5 cells/ml, mid-logarithmic phase, overnight (12 to 18 hrs) 37°C, visual inspection confirmed by alamar blue and CFU, repeated at least three times): 6.25 µg/mL (≈ 1.39 µM)
- MIC ([8]; Staphylococcus aureus ATCC 25923, inoculum 5×10^5 cells/ml, mid-logarithmic phase, overnight (12 to 18 hrs) 37°C, visual inspection confirmed by alamar blue and CFU, repeated at least three times): 6.25 µg/mL (≈ 1.39 µM)
- MIC ([9]; Staphylococcus epidermidis ATCC 12228, inoculum 5×10^5 cells/ml, mid-logarithmic phase, overnight (12 to 18 hrs) 37°C, visual inspection confirmed by alamar blue and CFU, repeated at least three times): 25 µg/mL (≈ 5.56 µM)
- MIC ([10]; Streptococcus agalactiae ATCC 12386, inoculum 5×10^5 cells/ml, mid-logarithmic phase, overnight (12 to 18 hrs) 37°C, visual inspection confirmed by alamar blue and CFU, repeated at least three times): 12.5 µg/mL (≈ 2.78 µM)
- MIC ([11]; Streptococcus mitis ATCC 6249, inoculum 5×10^5 cells/ml, mid-logarithmic phase, overnight (12 to 18 hrs) 37°C, visual inspection confirmed by alamar blue and CFU, repeated at least three times): 6.25 µg/mL (≈ 1.39 µM)
- MIC ([12]; Streptococcus pneumoniae ATCC 49619, inoculum 5×10^5 cells/ml, mid-logarithmic phase, overnight (12 to 18 hrs) 37°C, visual inspection confirmed by alamar blue and CFU, repeated at least three times): 1.56 µg/mL (≈ 0.347 µM)
- MIC ([13]; Streptococcus pyogenes ATCC 19615, inoculum 5×10^5 cells/ml, mid-logarithmic phase, overnight (12 to 18 hrs) 37°C, visual inspection confirmed by alamar blue and CFU, repeated at least three times): 6.25 µg/mL (≈ 1.39 µM)
- MIC ([14]; Streptococcus salivarius ATCC 13419, inoculum 5×10^5 cells/ml, mid-logarithmic phase, overnight (12 to 18 hrs) 37°C, visual inspection confirmed by alamar blue and CFU, repeated at least three times): 50 µg/mL (≈ 11.1 µM)
- Action on E. faecalis growth (bacteriostatic or bactericidal) [15]: potent bactericidal activity
